What all share (assay): NCI tumour cell line growth inhibition, 48 h
Test [1] deals with M19-MEL melanoma.
Test [2] concerns DLD-1 colon.
For test [3], the system named is DMS 114 small cell lung.
Test [4] deals with DMS 273 small cell lung.
Test [5] deals with LXFL 529 NSCLC.
In test [6] the test system is TK-10 renal.
Test [7] deals with CCRF-CEM leukemia.
Test [8] relates to T-47D breast.
Test [9] relates to NCI/ADR-RES ovarian.
Test [10] concerns BT-549 breast.

The text below walks through data of PubChem BioAssay (NCI).

“And” between values parts separate entries of the source, which are not always exact repeats. Identical values can stand only once.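 Five concentrations, 48 hours, 96-well plates. The concentration for 50% growth inhibition is given as GI50. TGI: concentration producing complete growth inhibition.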

For the compound `CN1CCC(=O)/C(=C/c2ccccc2)C1`, the TGI in test [1] turned out to be 18.4 µM; in test [2], 12.5 µM; in test [3], 24 µM; in test [4], 14.9 µM; in test [5], 17.6 µM; in test [6], 29.6 µM. The same compound yielded a TGI in [7] of 50.7 µM.

Regarding `CN(C)C(=S)/N=c1\sn(C)/c(=N\C(=S)N(C)C)n1C`, the TGI in test [1] is 69.7 µM; in test [2] it was above 100 µM; in test [4], above 100 µM; in [5], above 100 µM; in test [6], above 100 µM.

With `Cc1cc2c(=O)c3ccccc3[nH]c2c(C(N)=O)c1C`, the TGI in [1], in test [2], in test [3], in test [5], in test [6] and in test [7] was above 100 µM each time.

As to `CC12CCC(=O)C[C@H]1CCC(OC=O)C2Br` (stereo partly drawn), the TGI in test [1], in test [2], in test [3], in [4], in test [5] and in test [6] was above 100 µM in each case. The compound further had a TGI in test [7] above 100 µM.

As to `COC(=O)C(=Cc1cc(OC)c(OC)c(OC)c1-c1cc2c(cc1C1(C)OCCS1)OCO2)C(=O)OC` (stereo not drawn), the TGI is above 100 µM in [1]; above 100 µM in [2]; above 100 µM in test [3]; 75.1 µM in [4]; above 100 µM in [5]; above 100 µM in test [6]. Also, the TGI in test [7] is above 100 µM.

As for `COc1cc(OC)c2c(=O)cc(-c3ccc(OC)c(OC)c3OC)oc2c1`, the TGI in test [1], in test [2], in test [3], in [5] and in test [6] was above 100 µM throughout.

Take `O=C1N=C2Sc3ccc4ccccc4c3N2C1=O`: the TGI in test [1] was above 100 µM; in test [2], 95 µM; in test [3], above 100 µM; in [4], 53.2 µM; in test [5], 37.7 µM; in test [6], 81.6 µM. In addition, the TGI in test [7] was above 100 µM.

For `O=C(/C(=C/c1ccc(Cl)cc1)c1ccccc1)c1ccccc1`, the TGI was 31.8 µM in test [2]; 37.2 µM in test [3]; 33.7 µM in [5]; 56.8 µM in test [6]; above 100 µM in test [7].

As to `C/C(N=NC(=S)N1CC2CCC(CC2)C1)=C1\C=CC=CN1O`, the TGI in [1] is 23.3 µM; in test [2] it was above 100 µM; in test [3], 5.4 µM; in test [8], 94.8 µM; in test [4] it was 24.2 µM; in test [6], above 100 µM. The TGI in [9] was determined as 8.73 µM; in test [7], 1.29 µM.

On to `COC(=O)/C(=C/c1ccc(OC)cc1)C(C(=O)O)=C1CCCC1`, for which the TGI in test [1], in [2], in test [4], in test [5], in test [6] and in test [7] was above 100 µM throughout.

On to `c1ccc2c(OCCSCCCCCCCCCCSCCOc3cccc4ccccc34)cccc2c1`, for which the TGI in test [1], in test [2], in test [3], in test [4], in [6] and in [7] was above 100 µM in each case.

As to `Cc1ccccc1C(=O)c1cc(O)ccc1O`, the TGI in test [1], in test [2], in test [3], in [4], in test [5] and in [6] was above 100 µM each time. The compound further yielded a TGI in test [7] above 100 µM.

Regarding `COc1c(O)c2c(=O)cc3c4c5c(cc(=O)c6c(O)c(OC)c(CC(C)O)c(c(c1CC(C)O)c24)c65)OCO3` (stereo not drawn), the TGI in [1] was determined as 2.08 µM; in test [2] it was 8.39 µM; in [4], 3.26 µM; in test [5] it was 11.4 µM; in test [6], 8.12 µM; in [7] it was 16.7 µM.

Consider `O=C(CC1C(=O)Nc2ccccc2S1=O)Nc1cc(Cl)ccc1Cl` (stereo not drawn), for which the TGI in [1], in [2], in test [3], in test [4], in [5] and in [6] was above 100 µM in each case. The TGI in test [7] was above 100 µM.

`COc1ccc2c(c1OCC(=O)O)C(=O)C(CCC(=O)O)CC2` (stereo not drawn): the TGI in test [1], in test [2], in test [3], in test [4], in [5] and in [7] was above 100 µM throughout.

As to `COCC(OC)C(CC=C(C#N)C#N)OC` (stereo not drawn), the TGI in test [1], in [3], in test [4], in test [5], in test [6] and in test [7] was above 100 µM each time.

With `C/C(CC(=O)Nc1ccc(C)c(C)c1)=N\N(c1ccccc1)c1ccccc1`, the TGI in test [2] is above 100 µM; in test [3] it was 33.2 µM; in test [4], 33.5 µM; in test [5] it was above 100 µM; in test [6] it was above 100 µM; in test [7], 64.4 µM.

As for `CC(=O)Nc1ccc(-c2csc(Nc3cccc(-c4csc(C)n4)c3)n2)cc1`, the GI50 in test [8] is 2.65 µM; in test [10], 8.34 µM; in [6] it was 6.03 µM; in [9], 0.642 µM; in [7] it was above 50 µM. Also, the TGI in test [8] was above 43.2 µM; in [10], 44.6 µM; in [6], above 50 µM; in [9], 6.84 µM; in test [7], above 50 µM.

For the compound `O=C(c1ccco1)c1c(C(F)(F)F)nc2ccc(Cl)cc2[n+]1[O-]`, the GI50 in test [8], in test [10], in test [6], in test [9] and in test [7] was above 100 µM throughout. Moreover, the TGI in [8], in test [10], in [6], in test [9] and in [7] was above 100 µM throughout.

On to `CN(C)CC[C@H](CSc1ccccc1)Nc1ccc(S(=O)(=O)NC(=O)c2ccc(N3CCN(Cc4ccccc4-c4ccc(Cl)cc4)CC3)cc2)cc1[N+](=O)[O-]`, for which the GI50 in [8] is 5.87 µM; in test [10], 17.3 µM; in test [6], 2.44 µM; in [9], above 61.6 µM; in test [7], 0.36 µM. Also, the TGI in test [8] was above 60.4 µM; in [10], above 100 µM; in test [6] it was 5.37 µM; in test [9], above 100 µM; in [7] it was above 100 µM.

In the case of `COc1ccc(-c2ccc(=O)oc2C#Cc2cc(OC)c(OC)c(OC)c2)cc1O`, the GI50 in test [8] is 6.4 µM; in [10] it was 0.275 µM; in [6], 6.88 µM; in [9] it was 0.262 µM; in [7], 0.331 µM. Also, the TGI in test [8] was above 100 µM; in [10] it was 99.2 µM; in test [6] it was above 100 µM; in test [9], above 43.8 µM; in [7], above 100 µM.

For the compound `COc1cc(C(=O)N2CCN(C(=O)c3cc(OC)c(OC)c(OC)c3)C2=S)cc(OC)c1OC`, the GI50 in test [8] was 13.1 µM; in test [10] it was 17.4 µM; in test [6], 17 µM; in test [9], 26.8 µM; in test [7], 12.2 µM. Further, the TGI turned out to be 40.3 µM in test [8]; 34.1 µM in [10]; 37.3 µM in test [6]; 74.5 µM in test [9]; 34.1 µM in test [7].

On to `CCCCCCCCCCCCCCCC(=O)OCCOCCOCCOCc1ccccc1`, for which the TGI in test [1], in test [2], in test [4] and in [6] was above 100 µM each time.

Regarding `CCOC(=O)N[C@H]1CCc2cc(OC)c(OC)c(OC)c2-c2ccc(SC)c(=O)cc21`, the TGI in [2] was above 100 µM; in test [3], below 0.0117 µM; in test [8], above 100 µM; in test [10], 33.2 µM and > 32.5 µM; in [4], above 100 µM; in test [6] it was above 100 µM. The TGI in [9] and in test [7] was above 100 µM throughout. Moreover, the figures for the GI50 in test [6] and in test [9] were 7.23 µM and 0.0319 µM, respectively.

Regarding `CC1(C)COC(c2cccc3c2C(=O)c2cccc(Cl)c2-3)=N1`, the TGI in [3], in test [4], in test [5], in [6] and in test [7] was above 100 µM in each case.

For the compound `CCN(CC)CCNc1nc(N)c(C#N)c(C#N)c1C#N`, the TGI in [8], in test [10], in [6], in [9] and in test [7] was above 10 µM in each case.

With `O=C(/C=C/c1ccc[nH]1)c1ccc(-n2ccc(C(F)(F)F)n2)cc1`, the GI50 in test [8] is above 40.9 µM; in [10], 0.425 µM; in test [6], above 100 µM; in test [9], above 100 µM; in test [7], 1.06 µM. The TGI in test [8] is above 100 µM; in test [10], 2.5 µM; in test [6], above 100 µM; in test [9], above 100 µM; in test [7], above 100 µM.

On to `COc1ccc(CCN(C)C2CCC(C#N)(c3ccc(OC)c(OC)c3)CC2)cc1OC` (stereo not drawn), for which the TGI in [1], in test [2], in [4], in [5], in test [6] and in test [7] was above 100 µM each time.

With `COC(=O)[C@]12CC[C@@H](C)[C@H](C)[C@@H]1C1=CC[C@@H]3[C@@]4(C)C[C@@H](O)[C@H](O)[C@@](C)(CO)C4=CC[C@@]3(C)[C@]1(C)CC2`, the GI50 in [8] is 12.3 µM; in test [10], 16.2 µM; in [6] it was 19.4 µM; in test [9], 16.6 µM; in [7] it was 18.2 µM. For the same compound, the TGI was found to be 27.8 µM in test [8]; 31.7 µM in test [10]; 34.5 µM in test [6]; 33.9 µM in test [9]; 37.1 µM in test [7].

Turning to `Cc1c(N(C)C)ccc2c(=O)c3cccc(CC(=O)O)c3oc12`, the TGI in test [1], in test [2], in [3], in test [8], in [10] and in [4] was above 100 µM in each case. Besides, the TGI in test [6], in [9] and in test [7] was above 100 µM in each case.

As to `C=CCCCCC1CCC2CCC(CCCCC=C)N12` (stereo not drawn), the TGI in test [1] was determined as 37.3 µM; in test [3], 31.3 µM; in test [4], 37.5 µM; in [5] it was 26.9 µM; in test [6], 34.8 µM; in [7], 37.7 µM.

Take `O=c1c(F)cn(Cc2ccc(C34CC5CC(CC(C5)C3)C4)c(O)c2)c(=O)n1Cc1ccc(C23CC4CC(CC(C4)C2)C3)c(O)c1`: the GI50 in [8] was 20.8 µM; in test [10] it was 13.1 µM; in [6], 15.7 µM; in test [9], 14.3 µM; in test [7], 9.46 µM. The TGI was 51.6 µM in [8]; 31.3 µM in test [10]; 30 µM in [6]; 28.9 µM in test [9]; above 100 µM in [7].

Take `Cc1nc(Nc2cccnc2)sc1C(=O)/C=C/c1ccc(F)cc1`: the GI50 in [8] is 2.25 µM; in test [10] it was 2.83 µM; in [6] it was 2.98 µM; in test [9], 3.24 µM; in test [7], 1.4 µM. In addition, the TGI was above 100 µM in [8]; 8.87 µM in [10]; above 100 µM in [6]; above 100 µM in test [9]; 24.7 µM in test [7].

On to `CC(C)C1=Cc2ccc3c(c2C(=O)C1=O)CCCC3(C)C`, for which the TGI in test [1] was 6.99 µM; in test [2], 5.08 µM; in test [4], 14.8 µM; in test [5], 3.45 µM; in test [6] it was 11.2 µM; in test [7], above 100 µM.
